Assay results taken from PubChem BioAssay (NCI).
Several values for one entry are separate records, joined by “and”; a condition that tells them apart may be missing. Equal values may be shown once.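 48-hour exposure; five concentrations; linearly interpolated endpoints. The concentration for 50% growth inhibition is given as GI50. TGI: concentration producing complete growth inhibition.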

Assays:
Assay in all cases: NCI-60 cell line screen, 48 h
A498 renal = tested on: A498 renal
EKVX NSCLC = tested on: EKVX NSCLC
HCC-2998 colon = tested on: HCC-2998 colon
M14 melanoma = tested on: M14 melanoma
NCI-H522 lung = tested on: NCI-H522 lung
RPMI-8226 leukemia = tested on: RPMI-8226 leukemia
RXF 393 renal = tested on: RXF 393 renal
SF-268 CNS = tested on: SF-268 CNS
SK-MEL-2 melanoma = tested on: SK-MEL-2 melanoma
SK-MEL-28 melanoma = tested on: SK-MEL-28 melanoma

SMILES | TGI (A498 renal) | TGI (EKVX NSCLC) | TGI (HCC-2998 colon) | TGI (M14 melanoma) | TGI (NCI-H522 lung) | TGI (RPMI-8226 leukemia) | TGI (RXF 393 renal) | TGI (SF-268 CNS) | TGI (SK-MEL-2 melanoma) | TGI (SK-MEL-28 melanoma) | GI50 (A498 renal) | GI50 (EKVX NSCLC) | GI50 (HCC-2998 colon) | GI50 (M14 melanoma) | GI50 (NCI-H522 lung) | GI50 (RPMI-8226 leukemia) | GI50 (RXF 393 renal) | GI50 (SF-268 CNS) | GI50 (SK-MEL-2 melanoma) | GI50 (SK-MEL-28 melanoma)
O=Cc1ccc(-c2cccs2)s1 | 5.21 µM | > 96.6 µM | > 100 µM | > 100 µM | > 100 µM | > 100 µM | 65.3 µM | > 100 µM | > 100 µM | > 100 µM | – | – | – | – | – | – | – | – | – | –
Nc1nc(CCC(=O)Nc2cccc(C(F)(F)F)c2)cc(-c2ccc3ccccc3c2)n1 | > 100 µM | > 100 µM | > 100 µM | > 100 µM | > 100 µM | > 100 µM | > 100 µM | > 100 µM | > 100 µM | > 100 µM | – | – | – | – | – | – | – | – | – | –
O=[N+]([O-])c1ccc2c(c1)[O][Sn][O]2 | > 150 µg/mL | > 150 µg/mL | > 150 µg/mL | 78.2 µg/mL | 69.5 µg/mL | > 150 µg/mL | > 150 µg/mL | > 150 µg/mL | > 150 µg/mL | > 150 µg/mL | > 150 µg/mL | > 150 µg/mL | > 150 µg/mL | 23.8 µg/mL | 4.23 µg/mL | 17.8 µg/mL | 8.22 µg/mL | 47.6 µg/mL | > 150 µg/mL | 29.4 µg/mL
COC(=O)c1nc(N)[nH]c(=O)c1CCCCCc1c(C(=O)OC)nc(N)[nH]c1=O | > 50 µM | > 50 µM | > 50 µM | > 50 µM | > 50 µM | > 50 µM | > 50 µM | > 50 µM | > 50 µM | > 50 µM | – | – | – | – | – | – | – | – | – | –
CN[C@@H]1C[C@H]2O[C@@](C)([C@@H]1OC)n1c3ccccc3c3c4c(c5c6ccccc6n2c5c31)C(=O)N[C@@H]4O | 0.0232 µM and 0.0257 µM | 0.232 µM and 2.12 µM | 0.3 µM and 2.69 µM | 0.3 µM and 1.25 µM | 0.197 µM and 0.382 µM | – | 0.0345 µM and < 0.0219 µM | – | 0.245 µM and 0.123 µM | 2.31 µM | 0.0053 µM | – | 0.0534 µM | 0.0311 µM | – | 0.0419 µM | 0.00955 µM | 0.008 µM | 0.0348 µM | –
Cc1cc(N/N=C/c2nc(-c3ccc(Cl)cc3)oc2C)c2cc(Cl)ccc2n1 | 25.1 µM | 28.3 µM | 7.32 µM | 4.13 µM | 4.27 µM | 5.21 µM | 15.8 µM | 11.2 µM | 31.8 µM | 3.86 µM | 11.7 µM | 14.6 µM | 2.86 µM | 1.96 µM | 1.89 µM | 2.07 µM | 3.57 µM | 3.15 µM | 16.4 µM | 1.99 µM
CN(C)C(=O)O[C@@H]1CN[C@@H](C#Cc2cc3ncnc(Nc4ccc(OCc5cccc(F)c5)c(Cl)c4)c3s2)C1 | > 19.7 µM | > 23.2 µM | > 25 µM | > 25 µM | > 10.5 µM | > 25 µM | > 25 µM | > 25 µM | > 25 µM | > 25 µM | 5.65 µM | 5.14 µM | 14.1 µM | > 25 µM | 2.14 µM | 7.18 µM | > 20.4 µM | 14.5 µM | > 25 µM | > 25 µM
Oc1ccccc1-c1nc2c3ccccc3c3ccccc3c2[nH]1 | 24.6 µM | 20.6 µM | 12.1 µM | 24 µM | 10.3 µM | 14.4 µM | 18.8 µM | 22.6 µM | 16.7 µM | 27.4 µM | 12.2 µM | 4.33 µM | 4.13 µM | 11.7 µM | 3.07 µM | 1.93 µM | 6.23 µM | 10.6 µM | 5.16 µM | 14.4 µM
COC(=O)c1c(-c2ccccc2)sc(-c2cccc3ccccc23)c1C(=O)OC | > 100 µM | > 100 µM | > 100 µM | > 100 µM | > 100 µM | > 100 µM | > 100 µM | > 100 µM | > 100 µM | > 100 µM | – | – | – | – | – | – | – | – | – | –
CNC(=S)N/N=C/c1ccc([N+](=O)[O-])s1 | > 10 µM | > 10 µM | > 10 µM | > 10 µM | > 10 µM | > 10 µM | > 10 µM | > 10 µM | > 10 µM | > 10 µM | – | – | – | – | – | – | – | – | – | –
CCC(c1cccc(O)c1)C(CC)c1cccc(O)c1 (stereo not drawn) | 16.7 µM | 35.7 µM | 18.3 µM | 13.2 µM | 19.3 µM | 7.73 µM | 10.6 µM | 20.3 µM | 17.2 µM | 18.2 µM | 4.35 µM | 4.54 µM | 5.18 µM | 2.93 µM | 4.9 µM | 2.05 µM | 2.75 µM | 5.18 µM | 3.96 µM | 4.9 µM
O=C1CC(=O)OC(c2ccc([N+](=O)[O-])cc2)O1 | 7.72 µM | 18.3 µM | 3.18 µM | 4 µM | 2.72 µM | 7.33 µM | 3.23 µM | 11 µM | 5.85 µM | 4.08 µM | 2.76 µM | 3.56 µM | 1.76 µM | 1.97 µM | 1.38 µM | 2.51 µM | 1.77 µM | 2.93 µM | 2.31 µM | 1.93 µM
CC[C@@]1(O)C(=O)OCc2c1cc1n(c2=O)Cc2cc3cc(N)ccc3nc2-1 | 0.143 µM and 0.152 µM | 9.06 µM and 44 µM | 0.495 µM and 1.36 µM | 0.404 µM and 0.0409 µM | 0.721 µM and 0.182 µM | 4.45 µM | – | 1.04 µM and 0.146 µM | 1.58 µM | 4.58 µM and 2.2 µM | 0.0277 µM and 0.0376 µM | 0.304 µM and 0.348 µM | 0.0707 µM | 0.0162 µM | 0.0261 µM and < 0.0112 µM | 0.106 µM and 0.0994 µM | 0.0489 µM | – | 0.528 µM and 0.311 µM | 0.183 µM and 0.0563 µM
O=[N+]([O-])c1ccc2c(c1)[O][Sn]([I])([I])[O]2 | > 100 µM | > 100 µM | > 100 µM | > 100 µM | > 100 µM | > 100 µM | > 100 µM | > 100 µM | > 100 µM | > 100 µM | > 100 µM | > 100 µM | > 100 µM | > 100 µM | 61.4 µM | 44.6 µM | 52.1 µM | > 100 µM | > 100 µM | 69.6 µM
